Laboratory results published in patent US6667316B1, “Pharmaceutically active isoindoline derivatives” (Celgene Corporation, priority 1999, dated 2003).

Row | melting point [°C] | SMILES
1 | 122 to 124 | CCOc1cc(C(CS(C)(=O)=O)N2C(=O)c3ccc([N+](=O)[O-])c([N+](=O)[O-])c3C2=O)ccc1OC (centres unmarked)
2 | 138 to 140 | CCOc1cc(C(CS(C)(=O)=O)N2C(=O)c3cccc(NC(=O)C(C)N(C)C)c3C2=O)ccc1OC.Cl (centres unmarked)
3 | 192 to 194 | CCOc1cc([C@H](CS(C)(=O)=O)N2C(=O)c3cccc(NC(=O)CN(C)C)c3C2=O)ccc1OC.Cl
4 | 202 to 204 | CCOc1cc([C@@H](CS(C)(=O)=O)N2C(=O)c3cccc(NC(=O)CN(C)C)c3C2=O)ccc1OC.Cl
5 | 178 to 180 | COc1ccc(C(CS(C)(=O)=O)N2C(=O)c3cccc(NC(=O)CN(C)C)c3C2=O)cc1OC.Cl (centres unmarked)
6 | 145 to 147 | CCOc1cc(C(CS(C)(=O)=O)N2Cc3cccc(NC(=O)CN(C)C)c3C2=O)ccc1OC.Cl (centres unmarked)
7 | 92 to 94 | CCOc1cc(C(CC(=O)N(C)C)N2C(=O)c3cccc(NC(=O)CN(C)C)c3C2=O)ccc1OC.Cl (centres unmarked)
8 | 122 to 124 | CCOc1cc([C@@H](CC(=O)N(C)C)N2C(=O)c3cccc(NC(=O)CN(C)C)c3C2=O)ccc1OC.Cl
9 | 205 to 207 | CCOc1cc(C(CS(C)(=O)=O)N2C(=O)c3ccc(N)c(N)c3C2=O)ccc1OC (centres unmarked) [Example 2, 2-[1-(3-Ethoxy-4-methoxyphenyl)-2-methylsulfonylethyl]-4,5-diaminoisoindoline-1,3-dione]
10 | 153 to 155 | CCOc1cc(C(CS(C)(=O)=O)N2C(=O)c3cccc(NC(=O)C4CC4)c3C2=O)ccc1OC (centres unmarked) [Example 7, Cyclopropyl-N-{2-[1-(3-ethoxy-4-methoxyphenyl)-2-methylsulfonylethyl]-1,3-dioxoisoindolin-4-yl}carboxamide]
11 | 166 to 168 | CCOc1cc(C(CS(C)(=O)=O)N2C(=O)c3cccc(NC(=O)CCl)c3C2=O)ccc1OC (centres unmarked) [Example 8, 2-Chloro-N-{2-[1-(3-ethoxy-4-methoxyphenyl)-2-methylsulfonylethyl]-1,3-dioxoisoindolin-4-yl}acetamide]
12 | 111 to 112 | CCOc1cc(C(CS(C)(=O)=O)N2C(=O)c3cccc(NC(=O)CN)c3C2=O)ccc1OC (centres unmarked) [Example 9, 2-Amino-N-{2-[1-(3-ethoxy-4-methoxyphenyl)-2-methylsulfonylethyl]-1,3-dioxoisoindolin-4-yl}acetamide]
13 | 130 to 132 | CCOc1cc(C(CS(C)(=O)=O)N2C(=O)c3cccc(NC(=O)C(F)(F)F)c3C2=O)ccc1OC (centres unmarked) [Example 11, N-{2-[1-(3-ethoxy-4-methoxyphenyl)-2-methylsulfonylethyl]-1,3-dioxoisoindolin-4-yl}-2,2,2-trifluoroacetamide]
14 | 178 to 180 | CCOc1cc(C(CS(C)(=O)=O)N2C(=O)c3cccc(CONC=O)c3C2=O)ccc1OC (centres unmarked) [Example 12, N-{2-[1-(3-Ethoxy-4-methoxyphenyl)-2-methylsulfonylethyl]-1,3-dioxoisoindolin-4-yl}methoxycarboxamide]
15 | 99 to 101 | CCOc1cc(C(CS(C)(=O)=O)N2C(=O)c3cccc(-c4nnc(C)o4)c3C2=O)ccc1OC (centres unmarked) [Example 15, 2-[1-(3-Ethoxy-4-methoxyphenyl)-2-methylsulfonylethyl]-4-(5-methyl-1,3,4-oxadiazol-2-yl)isoindoline-1,3-dione]
16 | 132 to 134 | CCOc1cc(C(CC(C)O)N2C(=O)c3cccc(NC(C)=O)c3C2=O)ccc1OC (centres unmarked) [Example 24, N-{2-[1-(3-ethoxy-4-methoxyphenyl)-3-hydroxybutyl]-1,3-dioxoisoindolin-4-yl}acetamide]
17 | 128 to 129 | CCOc1cc(C(CC(C)=O)N2C(=O)c3cccc(NC(C)=O)c3C2=O)ccc1OC (centres unmarked) [Example 25, N-{2-[1-(3-Ethoxy-4-methoxyphenyl)-3-oxobutyl]-1,3-dioxoisoindolin-4-yl}acetamide]
18 | 81 to 83 | CCOc1cc([C@@H](CC(C)=O)N2C(=O)c3cccc(NC(C)=O)c3C2=O)ccc1OC [Example 27, N-{2-[1R-(3-ethoxy-4-methoxyphenyl)-3-oxobutyl]-1,3-dioxoisoindolin-4-yl}acetamide]
19 | 134 to 136 | CCOc1cc(C(CS(C)(=O)=O)N2C(=O)c3cccc(NC(=O)C4CCCC4)c3C2=O)ccc1OC (centres unmarked) [Example 45, Cyclopentyl-N-{2-[1-(3-ethoxy-4-methoxyphenyl)-2-(methylsulfonyl)ethyl]-1,3-dioxoisoindolin-4-yl}carboxamide]
20 | 163 to 165 | CCOc1cc(C(CS(C)(=O)=O)N2C(=O)c3cccc(NC(=O)CCN(C)C)c3C2=O)ccc1OC (centres unmarked) [Example 46, 3-(Dimethylamino)-N-{2-[1-(3-ethoxy-4-methoxyphenyl)-2-(methylsulfonyl)ethyl]-1,3-dioxoisoindolin-4-yl}propanamide]
21 | 140 to 141 | CCOc1cc([C@@H](CS(C)(=O)=O)N2C(=O)c3cccc(NC(=O)C4CC4)c3C2=O)ccc1OC [Example 51, Cyclopropyl-N-{2-[(1S)-1-(3-ethoxy-4-methoxyphenyl)-2-(methylsulfonyl)ethyl]-1,3-dioxoisoindolin-4-yl}carboxamide]
22 | 130 to 132 | COc1ccc(C(CS(C)(=O)=O)N2C(=O)c3cccc(NC(=O)C4CC4)c3C2=O)cc1OC (centres unmarked) [Example 54, Cyclopropyl-N-{2-[1-(3,4-dimethoxyphenyl)-2-(methylsulfonyl)ethyl]-1,3-dioxoisoindolin-4-yl}carboxamide]
23 | 88 to 90 | CCOc1cc([C@@H](CC(=O)N(C)C)N2Cc3cccc(NC(C)=O)c3C2=O)ccc1OC [Example 59, (3R)-3-[7-(Acetylamino)-1-oxoisoindolin-2-yl]-3-(3-ethoxy-4-methoxyphenyl)-N,N-dimethylpropanamide]
24 | 92 to 94 | CCOc1cc([C@@H](CC(=O)N(C)C)N2Cc3cccc(NC(=O)C4CC4)c3C2=O)ccc1OC [Example 60, (3R)-3-[7-(Cyclopropylcarbonylamino)-1-oxoisoindolin-2-yl]-3-(3-ethoxy-4-methoxyphenyl)-N,N-dimethylpropanamide]
25 | 84 to 86 | CCOc1cc(C(CS(C)(=O)=O)N2C(=O)c3cccc(CNC(C)=O)c3C2=O)ccc1OC (centres unmarked) [Example 66, N-({2-[1-(3-Ethoxy-4-methoxyphenyl)-2-(methylsulfonyl)ethyl]-1,3-dioxoisoindolin-4-yl}methyl)acetamide]
26 | 277 to 279 | CCOc1cc(C(CS(C)(=O)=O)N2C(=O)c3cccc(N(S(C)(=O)=O)S(C)(=O)=O)c3C2=O)ccc1OC (centres unmarked) [Example 69, 4-[Bis(methylsulfonyl)amino]-2-[1-(3-ethoxy-4-methoxyphenyl)-2-(methyl-sulfonyl)ethyl]isoindoline-1,3-dione]
27 | 137 to 139 | CCOc1cc(C(CC(=O)CC)N2C(=O)c3cccc(NC(C)=O)c3C2=O)ccc1OC (centres unmarked) [Example 72, N-{2-[1-(3-Ethoxy-4-methoxyphenyl)-3-oxopentyl]1,3-dioxoisoindolin-4-yl}acetamide]
28 | 145 to 147 | COc1ccc(C(CC(C)=O)N2C(=O)c3cccc(NC(C)=O)c3C2=O)cc1OC1CCCC1 (centres unmarked) [Example 76, N-{2-[1-(3-Cyclopentyloxy-4-methoxyphenyl)-3-oxobutyl]-1,3-dioxoisoindolin-4-yl}acetamide]
29 | 194 to 196 | COc1ccc(C(CC(C)=O)N2C(=O)c3cccc(N(S(C)(=O)=O)S(C)(=O)=O)c3C2=O)cc1OC (centres unmarked) [Example 78, 2-[1-(3,4-Dimethoxyphenyl)-3-oxobutyl]-4-[bis(methylsulfonyl)amino]isoindoline-1,3-dione]
